For assay [1], the target named is Mitogen-activated protein kinase kinase kinase 10 (Homo sapiens) (UniProt Q02779). The experiment in a line: Residual activity of human MLK2/MAP3K10 using myelin basic protein as substrate at 1 uM in presence of 32P-ATP by Hotspot assay relative to control.
Assay [2] addresses Dual specificity mitogen-activated protein kinase kinase 2 (Homo sapiens) (UniProt P36507). The experiment in a line: Inhibition of human MEK2 using ERK2 (K52R) as substrate at 1 uM in presence of 32P-ATP by Hotspot assay relative to control; values are per cent of control.
Assay [3] deals with T1, TGF-beta receptor type-1 (Homo sapiens) (UniProt P36897).
T1 sequence (whole entry): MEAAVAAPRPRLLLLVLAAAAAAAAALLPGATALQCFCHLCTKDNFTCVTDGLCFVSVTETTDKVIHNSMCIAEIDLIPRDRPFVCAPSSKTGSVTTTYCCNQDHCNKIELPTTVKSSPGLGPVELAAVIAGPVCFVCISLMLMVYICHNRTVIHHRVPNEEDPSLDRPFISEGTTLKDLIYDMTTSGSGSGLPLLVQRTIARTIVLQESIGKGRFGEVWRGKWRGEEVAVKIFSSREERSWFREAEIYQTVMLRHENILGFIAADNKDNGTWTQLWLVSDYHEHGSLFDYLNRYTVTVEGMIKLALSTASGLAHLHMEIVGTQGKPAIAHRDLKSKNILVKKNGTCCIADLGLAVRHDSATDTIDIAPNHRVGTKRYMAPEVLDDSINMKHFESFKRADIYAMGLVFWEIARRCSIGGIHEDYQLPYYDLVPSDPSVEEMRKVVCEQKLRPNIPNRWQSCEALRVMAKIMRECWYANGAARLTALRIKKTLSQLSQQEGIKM
The experiment in a line: Inhibition of human ALK5/TGFBR1 using casein as substrate at 1 uM in presence of 32P-ATP by Hotspot assay relative to control; values are per cent of control.

Assay [4] has as its target Tyrosine-protein kinase Lyn (Homo sapiens) (UniProt P07948). The experiment in a line: Inhibition of human LYN using poly[Glu:Tyr] (4:1) as substrate at 1 uM in presence of 32P-ATP by Hotspot assay relative to control; values are per cent of control.
Assay [5] has as its target T2, Serine/threonine-protein kinase 17A (Homo sapiens) (UniProt Q9UEE5).
T2 sequence (whole entry): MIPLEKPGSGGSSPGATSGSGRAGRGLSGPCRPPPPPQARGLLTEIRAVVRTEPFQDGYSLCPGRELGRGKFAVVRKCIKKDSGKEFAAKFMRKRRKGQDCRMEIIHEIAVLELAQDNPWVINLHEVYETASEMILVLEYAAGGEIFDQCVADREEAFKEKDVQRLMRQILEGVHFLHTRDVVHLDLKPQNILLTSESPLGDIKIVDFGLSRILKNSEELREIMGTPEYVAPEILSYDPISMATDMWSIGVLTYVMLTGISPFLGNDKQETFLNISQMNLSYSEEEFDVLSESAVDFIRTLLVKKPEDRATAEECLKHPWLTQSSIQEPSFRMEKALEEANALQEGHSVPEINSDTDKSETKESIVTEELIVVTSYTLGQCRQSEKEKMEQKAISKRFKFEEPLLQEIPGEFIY
Put plainly: Inhibition of human DRAK1/STK17A using KKLNRTLSFAEPG as substrate at 1 uM in presence of 32P-ATP by Hotspot assay relative to control; values are per cent of control.

Assay [6] addresses T3, Serine/threonine-protein kinase TAO3 (Homo sapiens) (UniProt Q9H2K8).
T3 sequence (whole entry): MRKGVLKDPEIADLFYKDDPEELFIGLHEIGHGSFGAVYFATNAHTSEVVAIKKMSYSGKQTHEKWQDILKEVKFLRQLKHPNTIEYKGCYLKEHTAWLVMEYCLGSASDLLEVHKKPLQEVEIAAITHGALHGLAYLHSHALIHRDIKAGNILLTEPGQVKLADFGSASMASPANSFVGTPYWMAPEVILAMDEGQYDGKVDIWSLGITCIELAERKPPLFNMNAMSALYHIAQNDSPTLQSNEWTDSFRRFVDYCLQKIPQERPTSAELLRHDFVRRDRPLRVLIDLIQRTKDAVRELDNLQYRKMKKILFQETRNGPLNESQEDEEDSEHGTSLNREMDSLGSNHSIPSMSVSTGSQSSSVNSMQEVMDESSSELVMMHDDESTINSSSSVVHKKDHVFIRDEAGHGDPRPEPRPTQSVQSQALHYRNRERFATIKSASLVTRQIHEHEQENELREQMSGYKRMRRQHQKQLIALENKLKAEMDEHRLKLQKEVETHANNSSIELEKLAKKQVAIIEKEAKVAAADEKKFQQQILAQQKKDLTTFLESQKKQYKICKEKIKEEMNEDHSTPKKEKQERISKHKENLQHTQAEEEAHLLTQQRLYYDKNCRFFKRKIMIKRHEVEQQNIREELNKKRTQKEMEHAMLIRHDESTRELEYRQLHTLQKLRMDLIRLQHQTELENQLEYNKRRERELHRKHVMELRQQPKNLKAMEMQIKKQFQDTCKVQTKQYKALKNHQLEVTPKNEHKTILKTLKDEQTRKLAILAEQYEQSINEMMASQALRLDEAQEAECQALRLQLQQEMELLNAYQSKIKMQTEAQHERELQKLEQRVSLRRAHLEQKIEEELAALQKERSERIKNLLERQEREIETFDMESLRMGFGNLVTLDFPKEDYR
The experiment in a line: Inhibition of human TAOK3/JIK using myelin basic protein as substrate at 1 uM in presence of 32P-ATP by Hotspot assay relative to control; values are per cent of control.

The target in assay [7] is Mitogen-activated protein kinase kinase kinase kinase 4 (Homo sapiens) (UniProt O95819). Put plainly: Inhibition of human HGK/MAP4K4 using myelin basic protein as substrate at 1 uM in presence of 32P-ATP by Hotspot assay relative to control; values are per cent of control.
Mitogen-activated protein kinase kinase kinase kinase 4 (Homo sapiens), sequence (O95819 2-1239 limits assumed): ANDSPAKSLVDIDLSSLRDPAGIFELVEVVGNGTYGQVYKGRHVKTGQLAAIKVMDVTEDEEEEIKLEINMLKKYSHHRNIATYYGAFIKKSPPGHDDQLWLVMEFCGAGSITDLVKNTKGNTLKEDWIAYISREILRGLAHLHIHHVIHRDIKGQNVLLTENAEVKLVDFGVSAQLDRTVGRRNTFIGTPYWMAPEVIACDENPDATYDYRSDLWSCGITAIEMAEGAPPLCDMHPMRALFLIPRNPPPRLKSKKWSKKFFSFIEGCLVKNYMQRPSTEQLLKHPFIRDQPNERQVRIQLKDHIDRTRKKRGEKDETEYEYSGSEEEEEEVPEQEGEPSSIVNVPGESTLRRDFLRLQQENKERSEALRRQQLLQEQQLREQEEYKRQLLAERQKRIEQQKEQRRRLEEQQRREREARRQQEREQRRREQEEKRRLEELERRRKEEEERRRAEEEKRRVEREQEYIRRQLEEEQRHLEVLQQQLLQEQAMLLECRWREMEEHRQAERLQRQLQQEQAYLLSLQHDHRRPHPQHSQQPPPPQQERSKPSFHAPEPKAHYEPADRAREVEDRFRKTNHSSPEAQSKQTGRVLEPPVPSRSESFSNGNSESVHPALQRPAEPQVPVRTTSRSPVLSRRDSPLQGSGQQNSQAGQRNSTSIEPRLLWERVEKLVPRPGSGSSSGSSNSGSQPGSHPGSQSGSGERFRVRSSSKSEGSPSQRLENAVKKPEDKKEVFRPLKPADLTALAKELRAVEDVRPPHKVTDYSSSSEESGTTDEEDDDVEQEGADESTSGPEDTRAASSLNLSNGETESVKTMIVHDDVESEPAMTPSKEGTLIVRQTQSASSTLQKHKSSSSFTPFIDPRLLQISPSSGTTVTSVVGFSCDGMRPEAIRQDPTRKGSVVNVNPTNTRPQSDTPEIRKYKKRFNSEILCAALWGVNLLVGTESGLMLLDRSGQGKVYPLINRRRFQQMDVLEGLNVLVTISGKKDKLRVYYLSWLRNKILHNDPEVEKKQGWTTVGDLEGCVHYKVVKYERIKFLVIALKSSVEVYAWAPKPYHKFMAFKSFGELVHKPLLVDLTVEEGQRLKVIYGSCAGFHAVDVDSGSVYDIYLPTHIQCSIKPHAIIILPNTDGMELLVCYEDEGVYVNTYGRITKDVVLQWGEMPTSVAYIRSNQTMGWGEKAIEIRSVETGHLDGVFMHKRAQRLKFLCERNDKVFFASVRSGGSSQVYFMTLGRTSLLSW

Dual specificity mitogen-activated protein kinase kinase 2 (Homo sapiens), sequence (P36507 whole entry): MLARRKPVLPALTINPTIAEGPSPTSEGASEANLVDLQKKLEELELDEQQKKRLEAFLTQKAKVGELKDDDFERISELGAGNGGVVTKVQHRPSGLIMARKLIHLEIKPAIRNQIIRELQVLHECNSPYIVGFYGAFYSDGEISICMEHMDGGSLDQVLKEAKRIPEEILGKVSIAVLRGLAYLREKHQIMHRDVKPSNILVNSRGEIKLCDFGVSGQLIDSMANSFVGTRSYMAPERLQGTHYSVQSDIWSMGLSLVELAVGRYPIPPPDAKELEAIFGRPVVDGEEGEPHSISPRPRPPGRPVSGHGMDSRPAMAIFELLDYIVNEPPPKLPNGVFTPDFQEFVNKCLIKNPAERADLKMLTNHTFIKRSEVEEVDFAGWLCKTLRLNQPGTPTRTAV
Tyrosine-protein kinase Lyn (Homo sapiens), sequence (P07948 2-512 limits assumed): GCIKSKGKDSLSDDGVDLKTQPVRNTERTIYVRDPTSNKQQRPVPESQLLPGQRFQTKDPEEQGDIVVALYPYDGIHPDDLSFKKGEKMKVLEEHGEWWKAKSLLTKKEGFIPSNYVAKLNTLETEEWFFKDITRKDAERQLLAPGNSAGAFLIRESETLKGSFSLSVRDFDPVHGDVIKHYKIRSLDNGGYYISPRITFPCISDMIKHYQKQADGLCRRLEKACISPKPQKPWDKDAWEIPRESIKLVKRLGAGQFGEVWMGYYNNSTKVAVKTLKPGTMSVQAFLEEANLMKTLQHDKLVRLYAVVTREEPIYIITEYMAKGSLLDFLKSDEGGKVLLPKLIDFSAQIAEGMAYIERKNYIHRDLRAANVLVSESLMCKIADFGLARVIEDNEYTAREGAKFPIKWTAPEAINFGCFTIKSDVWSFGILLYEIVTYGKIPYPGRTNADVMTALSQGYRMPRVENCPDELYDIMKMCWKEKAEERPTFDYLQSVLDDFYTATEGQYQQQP
Mitogen-activated protein kinase kinase kinase 10 (Homo sapiens), sequence (Q02779 whole entry, looked up): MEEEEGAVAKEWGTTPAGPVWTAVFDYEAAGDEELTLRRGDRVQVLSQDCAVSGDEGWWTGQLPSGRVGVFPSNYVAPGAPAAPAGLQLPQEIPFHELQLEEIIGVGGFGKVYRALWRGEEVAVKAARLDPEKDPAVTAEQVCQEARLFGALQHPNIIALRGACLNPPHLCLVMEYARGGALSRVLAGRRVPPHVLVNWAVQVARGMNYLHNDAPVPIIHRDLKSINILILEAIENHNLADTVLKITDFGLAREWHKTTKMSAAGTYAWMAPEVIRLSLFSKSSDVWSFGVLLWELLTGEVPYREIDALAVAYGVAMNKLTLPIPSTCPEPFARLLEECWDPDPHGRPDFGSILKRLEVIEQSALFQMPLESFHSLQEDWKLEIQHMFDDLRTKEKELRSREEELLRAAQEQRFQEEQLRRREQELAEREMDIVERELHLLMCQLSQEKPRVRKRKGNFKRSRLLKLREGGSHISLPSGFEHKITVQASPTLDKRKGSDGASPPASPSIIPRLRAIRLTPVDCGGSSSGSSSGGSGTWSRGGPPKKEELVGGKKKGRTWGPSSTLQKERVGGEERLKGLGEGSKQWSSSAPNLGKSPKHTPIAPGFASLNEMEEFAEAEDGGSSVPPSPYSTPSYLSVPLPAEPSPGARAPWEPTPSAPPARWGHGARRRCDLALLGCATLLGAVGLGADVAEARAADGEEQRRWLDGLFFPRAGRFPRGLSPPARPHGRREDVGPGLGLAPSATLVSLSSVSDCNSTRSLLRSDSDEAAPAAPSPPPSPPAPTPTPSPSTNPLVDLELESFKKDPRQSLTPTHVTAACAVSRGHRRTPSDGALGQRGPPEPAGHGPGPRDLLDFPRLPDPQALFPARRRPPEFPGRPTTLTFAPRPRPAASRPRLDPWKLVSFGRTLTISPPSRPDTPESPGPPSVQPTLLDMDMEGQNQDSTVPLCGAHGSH

Take `CC(C)S(=O)(=O)c1ccc2nccc(Nc3ccc4scnc4c3)c2c1`: the residual activity in assay [1] turned out to be 84.5%; in assay [2] it was 105%; in assay [3] it was 101%; in assay [4] it was 20%; in assay [5], 99%; in assay [6], 96.4%. Further, in assay [7], the residual activity came to 83%.

Consider `CNC(=O)c1ccc2c(c1)ncn2-c1ccc(CC(=O)OC(C)(C)C)cc1`, for which the residual activity in assay [1] was found to be 90.9%; in assay [2], 98.3%; in assay [3], 94.9%; in assay [4] it was 73.5%; in assay [5], 98.9%; in assay [6] it was 95.2%. Besides, in assay [7], the residual activity worked out at 102%.

In the case of `Cc1cc(-c2cnc(N)c3c(-c4ccc5scnc5c4)csc23)n(C)n1`, the residual activity in assay [1] amounted to 97.5%; in assay [2], 97.8%; in assay [3] it was 97.8%; in assay [4], 17%; in assay [5] it was 96.8%; in assay [6] it was 99.4%. Further, the residual activity in assay [7] was determined as 21.2%.

For the origin of these results see ChEMBL document CHEMBL5649166, “RIP3 induces apoptosis independent of pronecrotic kinase activity” (Mol Cell, 2014).
